The source of these data is patent publication US8980838B2, “Cyclized peptidomimetic small molecule inhibitors of the WDR5 and MLL1 interaction” (The Regents of the University of Michigan, priority 2011, dated 2015).

Each structure is given as a SMILES string. *1 amine or outer side, *2 acyl side, *3 side chain or, on linkers, in order; H or OH if unused. Where a SMILES comes first, the peptide text is derived from it. Bridges are numbered along the chain shown (N, C = ends). [ ]: non-standard residue; d: D form. The star is where a group is joined. dαMeLys(Me) = CN(CCCC[C@@](C)(N[*:1])C(=O)[*:2])[*:3]; dPhg(4-F) = N[C@@H](C(=O)O)c1ccc(F)cc1; dPhg = N[C@@H](C(=O)O)c1ccccc1; Isobutyryl = CC(C)C(=O)*; Abu = CC[C@H](N)C(=O)O

One test has as its target T1, WDR5 (Homo sapiens, UniProt P61964).
T1 construct: N-terminal His-tagged WDR5Δ23 (residues 24-334) was expressed from the pET28-MHL vector; His tag (N); made in house; host or cells: Rosetta2(DE3) pLysS cells (E. coli)
The test can be described thus: fluorescence-polarization based competitive binding assay.
Conditions: not given
The procedure: Binding Assay Protein Expression and Purification for the Binding Assay
Cells were grown to OD600=0.4-0.6 in 4 L 2×TY at 30° C., induced with 0.1 mM IPTG at 16° C. for 16 hours and harvested in 20 mM HEPES pH 7.5, 500 mM KCl, 10% glycerol, 0.1 mg/ml PMSF, 0.05% NP40. Cells were lysed by addition of 0.2 mg/ml hen egg white lysozyme followed by sonication and clarification by centrifuging for 30 minutes at 15,000 rpm. The resin was washed 3 times for 10 minutes with 40 ml lysis buffer. His-WDR5Δ23 was eluted from the resin by 3×15 minute elutions with 20 mM HEPES pH 7.5, 100 mM KCl, 10% glycerol, 250 mM imidazole pH 7.5. […] Concentrated protein was aliquoted and samples were frozen on dry ice and stored at −80° C.
The IC50 value of the inhibitors were calculated using GraphPad Prism 4 software.
Competitive Binding Experiments
The binding affinities of the synthetic peptides shown in the study were measured using this competitive binding assay described earlier (31). A pre-incubated complex solution of WDR5Δ23 and the tracer in 120 μl assay buffer were added to dilutions of the test compound in 5 μl DMSO, giving final concentrations of WDR5Δ23 and the tracer of 4 nM and 0.6 nM, respectively. […] The plates were incubated with shaking at room temperature. The mP values were measured after five hours of incubation and Ki values were calculated using the equation described previously (32).
What is called IC50 is the concentration at which inhibition is half-maximal. With `CC[C@@H]1NC(=O)[C@H](CCCNC(=N)N)NC(=O)[C@](C)(NC(=O)C(C)C)CCCCN(C)C(=O)[C@@H](c2ccccc2)NC1=O` [Compound 29d] (Isobutyryl-[dαMeLys(Me)]R[Abu][dPhg]; lactam 1-C), the IC50 was < 10 nM.

As for `CC[C@@H]1NC(=O)[C@H](CCCNC(=N)N)NC(=O)[C@](C)(NC(=O)C(C)C)CCCCN(C)C(=O)[C@@H](c2ccc(F)cc2)NC1=O` [Compound 29e] (Isobutyryl-[dαMeLys(Me)]R[Abu][dPhg(4-F)]; lactam 1-C), the IC50 is < 10 nM.

With `CC[C@@H]1NC(=O)[C@H](CCCNC(=N)N)NC(=O)[C@](C)(NC(=O)C(C)C)CCCCN(C)C(=O)[C@@H](c2ccc(Cl)cc2)NC1=O` [Compound 29f], the concentration for half-maximal inhibition (IC50) is < 10 nM.

Still in this test, the particulars now being: FP competitive binding; WDR5Δ23 4 nM, tracer 0.6 nM, five hours incubation; Table 2 series; read-out: IC50, binding affinity to WDR5.
As to `CC[C@@H]1NC(=O)[C@H](CCCNC(=N)N)NC(=O)[C@](C)(NC(=O)C(C)C)CCCCCCCCNC1=O` [Compound 19c], the IC50 is < 10 nM.

`CC[C@@H]1NC(=O)[C@H](CCCNC(=N)N)NC(=O)[C@](C)(NC(=O)C(C)C)CCCCCNC1=O` [Compound 19a]: the 50% inhibitory concentration (IC50) was < 1000 nM.

Consider `CC[C@@H]1NC(=O)[C@H](CCCNC(=N)N)NC(=O)[C@](C)(NC(=O)C(C)C)CCCCCCNC(=O)[C@H](c2ccccc2)NC1=O` [Compound 29c], for which the IC50 is < 10 nM.

On to `CC[C@@H]1NC(=O)[C@H](CCCNC(=N)N)NC(=O)[C@](C)(NC(=O)C(C)C)CCCCCCNC1=O` [Compound 19b], for which the IC50 was < 10 nM.

For `CC[C@@H]1NC(=O)[C@H](CCCNC(=N)N)NC(=O)[C@](C)(NC(=O)C(C)C)CCCCCCNC(=O)[C@@H](c2ccccc2)NC1=O` [Compound 29b], the IC50 is < 10 nM.

The same test, now with this note: FP competitive binding; WDR5Δ23 4 nM, tracer 0.6 nM, five hours incubation; Table 3 series; read-out: IC50, binding affinity to WDR5.
In the case of `CC[C@@H]1NC(=O)[C@H](CCCNC(=N)N)NC(=O)[C@@](C)(NC(=O)C(C)C)CCCCCCNC(=O)[C@H](c2ccccc2)NC1=O` [Compound 36], the IC50 was < 1000 nM.

In the case of `CC[C@@H]1NC(=O)[C@H](CCCNC(=N)N)NC(=O)[C@@](C)(NC(=O)C(C)C)CCCCCCCNC1=O` [Compound 34c], the IC50 is < 1000 nM.

As to `CC[C@@H]1NC(=O)[C@H](CCCNC(=N)N)NC(=O)[C@@](C)(NC(=O)C(C)C)CCCCCCCCNC1=O` [Compound 34d], the IC50 is < 1000 nM.

The same test, now with this note: FP competitive binding; WDR5Δ23 4 nM, tracer 0.6 nM, five hours incubation; first cyclic series (Table 1); read-out: IC50, binding affinity to WDR5.
For `CCC1(CC)NC(=O)CCCCNC(=O)[C@H](CCCNC(=N)N)NC1=O` [Compound 4a], the IC50 was > 100000 nM.

As for `CCC1(CC)NC(=O)CCCCCCCNC[C@H](CCCNC(=N)N)NC1=O` [Compound 15], the IC50 is > 100000 nM.

In the case of `CCC1(CC)NC(=O)CCCCCCCN(C(C)=O)C[C@H](CCCNC(=N)N)NC1=O` [Compound 14], the IC50 is > 100000 nM.

Take `CCC1(CC)NC(=O)CCCCCNC(=O)[C@H](CCCNC(=N)N)NC1=O` [Compound 4b]: the IC50 was > 100000 nM.

As for `CCC1(CC)NC(=O)CCCCCCCNC(=O)[C@H](CCCNC(=N)N)NC1=O` [Compound 4d], the IC50 is > 1000 nM.

In the case of `CCC1(CC)NC(=O)CCCCCCNC(=O)[C@H](CCCNC(=N)N)NC1=O` [Compound 4c], the IC50 was > 100000 nM.

In the case of `CCC1(CC)NC(=O)CCCCCCCCNC(=O)[C@H](CCCNC(=N)N)NC1=O` [Compound 4e], the 50% inhibitory concentration (IC50) was > 1000 nM.
